Experimental data from patent US20230167149A1, “CD33 LIGANDS SUITABLE FOR INCORPORATION INTO CARRIERS” (GLYCOMIMETICS, INC., priority 2020, published 2023).

Target: T1, CD33 (Homo sapiens, UniProt P20138)
T1 construct: purchased BioLegend 750106
Assay: CD33 competitive binding assay
Details: immobilized CD33-Fc; competition with Neu5Acα2-3Galβ1-3GalNAc-PAA-biotin; TMB readout at 450 nm
Protocol: The assay to screen for and characterize glycomimetic ligands of CD33 is a competitive binding assay, which allows the determination of IC50 values. CD33-Fc (BioLegend catalog item 750106) was immobilized in 96 well microtiter plates by incubation at 4° C. overnight. To reduce non-specific binding, bovine serum albumin was added to each well and incubated at room temperature for 2 hours. The plate was washed and serial dilutions of the test compounds were added to the wells in the presence of biotinylated polyacrylamide conjugated with Neu5Acα2-3Galβ1-3GalNAc-PAA-biotin (GlycoTech catalog item 01-088). After incubation at room temperature for 2 hours and washing, streptavidin/horseradish peroxidase was added to each well and incubated at room temperature for 30 minutes followed by an additional wash.
To determine the amount of glycopolymer bound to the immobilized CD33, the peroxidase substrate 3.3′.5.5′ tetramethylbenzidine (TMB) was added. After 5 minutes, the enzyme reaction was stopped by the addition of H3PO4 and the absorbance of light at a wavelength of 450 nm was determined. The concentration of test compound required to inhibit binding by 50% was determined and reported as the IC50 value.

T1 sequence (P20138 18-364): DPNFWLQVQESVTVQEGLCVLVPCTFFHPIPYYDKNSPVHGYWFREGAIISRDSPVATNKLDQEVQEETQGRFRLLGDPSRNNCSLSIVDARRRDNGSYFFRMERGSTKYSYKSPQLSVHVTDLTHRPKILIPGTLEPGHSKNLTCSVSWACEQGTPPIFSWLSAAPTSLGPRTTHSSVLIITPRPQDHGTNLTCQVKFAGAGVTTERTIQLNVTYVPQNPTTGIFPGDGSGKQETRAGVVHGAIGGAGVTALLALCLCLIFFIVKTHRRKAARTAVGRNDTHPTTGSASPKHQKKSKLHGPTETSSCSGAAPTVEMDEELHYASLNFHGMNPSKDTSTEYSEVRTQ

IC50: 40 µM
Structure (SMILES): CCCNC(=O)COC1C[C@](OCCCn2cc(-c3ccccc3)nn2)(C(=O)O)OC([C@H](O)[C@H](O)CNC(=O)c2cc(C)c(O)c(C)c2)[C@@H]1NC(=O)Cn1cc(C2CCCCC2)nn1 (stereo partly shown) [Compound 193]
